Experiments:
psoriatic lesion = assay: Topical treatment of a psoriatic lesion in a patient, appearance of the lesion; format: in vivo, human; settings: person with severe psoriasis; pump spray with 40% by weight isopropyl myristate in alcohol carrier, on one lesion twice a day for two weeks
Experimental: (§1) A person, suffering from severe psoriasis came for treatment. Their psoriasis had become severe at a time about 20 years earlier when they had recurring sore throats and tonsilitis. Their sore throats had ceased, but their psoriasis persisted. A blood sample was taken to measure […] antibody level to Dnase-B, a streptococcal exoenzyme; It was determined that they were a streptococcal carrier. A 4 mm punch biopsy was taken at the same time from a psoriatic plaque on their posterior thigh. The biopsy was first exposed to an antibody to Streptozyme®, and stained using the LSAB test.
The patient was provided with a pump spray bottle containing 40% by weight of isopropyl myristate in an alcohol carrier, and instructed to spray the liquid on one particular lesion twice a day for two weeks. […] That site was biopsied and given the LSAB test, as before. The stain was negative, indicating the cleansing of the streptococcal antigen from the skin that had been treated with the 40% isopropyl myristate spray, and it was accompanied by a clearing of the lesion.
The composition in each case is liberally applied and the patient otherwise is permitted to carry out the usual hygiene, showering or bathing. […]

[1] = system: streptococcal antigen (Dnase-B) in the skin; assay: LSAB stain (antibody to Streptozyme) of a biopsy from the treated psoriatic lesion site; format: in vivo, streptococci; settings: person with severe psoriasis; pump spray with 40% by weight isopropyl myristate in alcohol carrier, on one lesion twice a day for two weeks; stain positive before treatment
Experimental: Anti-body levels of many such patients, to streptococcal exoenzymes, deoxyribonuclease B, hyaluronidase, streptolysin O, and Streptozyme (a commercial product made from streptococci and containing Dnase-B as one of its constituents., a registered trademark of Carter-Wallace, Inc. and available from Wampole Labs, of Cranbury, N.J.), when measured will be found to be elevated prior to the treatment in accordance with this invention. The presence of these antigens are tested for by using a primary rabbit polyclonal antibody to, e.g., Streptozyme® with a linked streptavidin biotin alkaline phosphatase (“LSAB”) amplification stain, available from Dako, of Carpinteria, Calif. A prominent red stain on the biopsied skin indicates the presence of the antigens.
as §1, with “test. […]” for “test.”

CCCCCCCCCCCCCC(=O)OC(C)C [isopropyl myristate]
clearing of the sprayed lesion (psoriatic lesion): substantially clear of the disease | LSAB stain for streptococcal antigen in the biopsied treated site [1]: negative

From patent US20030215397A1, “Method of treatment of skin diseases related to microbial antigens in the skin” (priority 2002, published 2003)
